Each compound was assayed on Enzyme of the genus Aspergillus (glycerol oxidase) (assay: Inhibition of enzyme activity by 1 mM inhibitors (4-AA method)). Settings: not given.
Format: biochemical, Aspergillus japonicus KY-45
Set-up: key: % of activity without inhibitor (no inhibitor = 100)
Protocol: (§1) The enzyme activity is expressed by "unit." A "unit" of the enzyme activity is defined as that amount of enzyme which will decompose 1μ mole of glycerol at 37° C. in 1 minute in the presence of oxygen. The determination of the enzyme activity is carried out as follows: glycerol is reacted with glycerol oxidase with stirring to form hydrogen peroxide, and 4-aminoantipyrine and phenol are reacted with the resulting hydrogen peroxide in the presence of peroxidase to derive quinoneimine pigment. The optical density at 500 nm of the resulting quinoneimine pigment is measured to determine the amount of generated hydrogen peroxide, whereby the enzyme activity is determined (which will be hereinafter referred to as "4-AA method").
(§2) Enzymes activities obtained by adding 1 mM of various inhibitors are shown in Table 1, the activity of the enzyme with no addition of the inhibitor being defined as 100. The activities are measured according to 4-AA method deriving a pigment of 4-aminoantipyrine system from the generated H2 O2.
(§3) Enzymological and physico-chemical properties of glycerol oxidase thus obtained are described below (as glycerol oxidase, the respective purified preparates obtained in Examples 1 and 2, are used).
(§4) Determination of the enzyme activity is carried out by reacting hydrogen peroxide generated by the enzyme with 4-aminoantipyrine and phenol in the presence of peroxidase to obtain quinoneimine pigment, and quantitatively determining the resulting quinoneimine pigment.
(§5) The reagents (1)-(6) are mixed in a test tube, and then shaken at 37° C. for 5 minutes. Then, enzyme solution is added thereto, and thus obtained mixture is made up to 3 ml with ammonium buffer solution. Reaction is carried out at 37° C. for 10 minutes with shaking. On the other hand, similar procedure is repeated using water in place of the test solution as a reference. The optical density of the reaction solution at 500 nm is measured, and a difference from the control is determined as Δ OD (optical density).
(§6) On the other hand, the absorption coefficient of 0.5 mM of quinoneimine pigment is reported as 5.33 [Clin. Chem. 20, 470 (1974)], and thus, if the optical density (Δ OD) at 500 nm of 3 ml of the reaction solution obtained according to the foregoing operational procedure IV-(c) is represented by a, the desired enzyme activity (A) per milliliter of the enzyme solution is calculated from the following formula: [formula]

SMILES	Enzyme activity on adding inhibitor (activity with no inhibitor defined as 100)
Oc1cccc2cccnc12 [8-hydroxyquinoline]	90
O=C(O)CN(CCN(CC(=O)O)CC(=O)O)CC(=O)O [EDTA]	105

Same assay, conditions: 1 mM inhibitor; Enzyme of the genus Aspergillus; 4-AA method

SMILES	Enzyme activity on adding inhibitor (activity with no inhibitor defined as 100)
O=S(=O)([O-])[O-].[Cu+2] [CuSO4]	10
O=C(O)c1cc[c]([Hg][Cl])cc1 [PCMB, p-chloromercuribenzoate]	50
Cc1ccc2ccc3ccc(C)nc3c2n1 [neocuproine]	100
CC(=O)[O-].CC(=O)[O-].[Pb+2] [Pb(CH3 COO)2]	15
CCN1C(=O)C=CC1=O [N-ethylmaleimide]	100
c1cnc2c(c1)ccc1cccnc12 [0-phenanthroline]	90
[N-]=[N+]=[N-].[Na+] [NaN3]	20
O[C@H](CS)[C@H](O)CS (racemic) [dithiothreitol]	100
O=[N+]([O-])[O-].[Ag+] [AgNO3]	30
[Cl][Hg][Cl] [HgCl2]	20
Cl.NO [NH2 OH--HCl]	0
c1ccc(-c2ccccn2)nc1 [α,α'-dipyridyl]	85

These compounds were tested on Enzyme of the genus Neurospora (glycerol oxidase) in the same assay as above. Settings: not given.
Format: biochemical, Neurospora crassa KY-462
Set-up: key: % of activity without inhibitor (no inhibitor = 100)
Protocol: as §1, §2, §3, §4, §5, §6

SMILES	Enzyme activity on adding inhibitor (activity with no inhibitor defined as 100)
O=C(O)CI [iodoacetate]	100

Same assay, conditions: 1 mM inhibitor; Enzyme of the genus Neurospora; 4-AA method

SMILES	Enzyme activity on adding inhibitor (activity with no inhibitor defined as 100)
O=S(=O)([O-])[O-].[Fe+2] [FeSO4]	0
N[C@@H](CS)C(=O)O [cysteine]	60
O=S(=O)([O-])[O-].[Cu+2] [CuSO4]	20
O=C(O)c1cc[c]([Hg][Cl])cc1 [PCMB, p-chloromercuribenzoate]	108
O=S(=O)([O-])[O-].[Zn+2] [ZnSO4]	23
[Cl][Hg][Cl] [HgCl2]	23
O=C(O)CN(CCN(CC(=O)O)CC(=O)O)CC(=O)O [EDTA]	80
Cl.NO [NH2 OH--HCl]	0

The compounds below were run on Enzyme of the genus Aspergillus (glycerol oxidase) (assay: Substrate specificity, relative activity by 4-AA method). Settings: substrate equimolar to glycerol.
Format: biochemical, Aspergillus japonicus KY-45
Protocol: as §1, §3
(§7) The relative activity is measured using other substrates in equimolar amounts to that of glycerol in the procedure for measuring the activity according to 4-AA method.
(§8) The relative activities on other substrates are given in Table 3, the activity on glycerol being defined as 100.
as §5

SMILES	Relative activity on substrate (activity on glycerol defined as 100)
CC(C)O [isopropyl alcohol]	0
CCCO [n-propyl alcohol]	0
OCCCCO [1,4-butanediol]	0.3
OCC(O)CO [glycerol]	100
CC(O)C(C)O (stereo not shown) [2,3-butanediol]	0.3
O=P(O)(O)OCC(O)CO (stereo not shown) [Glycerol-3-phosphoric acid]	0.4
CCO [ethanol]	0
CC(O)CO (stereo not shown) [1,2-propanediol]	10.5
CC(O)CCO (stereo not shown) [1,3-butanediol]	2.0
OCCCO [1,3-propanediol]	3.3

What follows are compounds tested on Enzyme of the genus Neurospora (glycerol oxidase) in the same assay as above. Settings: substrate equimolar to glycerol.
Format: biochemical, Neurospora crassa KY-462
Protocol: as §1, §3, §7, §8, §5

SMILES	Relative activity on substrate (activity on glycerol defined as 100)
CC(C)O [isopropyl alcohol]	0
CCCO [n-propyl alcohol]	0
OCCCCO [1,4-butanediol]	0
OCC(O)CO [glycerol]	100
CC(O)C(C)O (stereo not shown) [2,3-butanediol]	0
O=P(O)(O)OCC(O)CO (stereo not shown) [Glycerol-3-phosphoric acid]	21
CCO [ethanol]	0
CC(O)CO (stereo not shown) [1,2-propanediol]	0
CC(O)CCO (stereo not shown) [1,3-butanediol]	0
OCCCO [1,3-propanediol]	0

— patent publication US4202941A, “Glycerol oxidase and process for the production thereof and method for the quantitative determination of glycerol by glycerol oxidase” (Kyowa Hakko Kogyo, Co. Ltd., priority 1977, dated 1980)
